# Patent US12398154B2, “Azaquinazoline pan-KRas inhibitors” (Mirati Therapeutics, Inc., priority 2020, dated 2025)
# Key:
# [1] = target: T1, KRas G13D (Homo sapiens, UniProt P01116, G13D); test: KRas binding assay (TR-FRET displacement);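 further: One-hour room temperature incubation before TR-FRET reading, IC50 from a four-parameter curve fit to percent-of-control data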
# T1 construct: Biotinylated KRas (corresponding to amino acids 1-169, produced at Accelegan Inc.); biotin (biotinylated); purchased Accelegan Inc
# Experimental: (§1) The ability of a compound to bind to KRas was measured using a TR-FRET displacement assay. […] After a 60-minute incubation at room temperature, the reaction was measured using a BMG LABTECH CLARIO star Plus via TR-FRET. […] The POC values were fit to a 4-parameter IC50 equation and the IC50 value reported.
# [2] = target: T2, KRas Q61H (Homo sapiens, UniProt P01116, Q61H); test: KRas binding assay (TR-FRET displacement);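 further: TR-FRET signal read after one hour at room temperature, IC50 derived by four-parameter fitting of percent-of-control values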
# T2 construct: Biotinylated KRas (corresponding to amino acids 1-169, produced at Accelegan Inc.); biotin (biotinylated); purchased Accelegan Inc
# Experimental: as §1
# [3] = target: KRas G12D (Homo sapiens, UniProt P01116, G12D); test: biochemical;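 further: TR-FRET displacement binding assay on KRas, read after a one-hour incubation at room temperature, IC50 fitted from percent-of-control values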
# Experimental: as §1
# [4] = target: KRas G12V (Homo sapiens, UniProt P01116, G12V); test: biochemical;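 further: KRas binding measured by TR-FRET displacement at room temperature, IC50 fitted from percent of control values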
# Experimental: as §1
# [5] = target: KRas G12R (Homo sapiens, UniProt P01116, G12R); test: biochemical;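 further: TR-FRET displacement assay of compound binding to KRas, read after one hour at room temperature, potency from a four-parameter fit of percent-of-control values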
# Experimental: as §1
# [6] = target: KRas G12A (Homo sapiens, UniProt P01116, G12A); test: biochemical;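 further: binding to KRas measured by TR-FRET displacement after one hour at room temperature, IC50 from a four-parameter fit of percent-of-control values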
# Experimental: as §1
# [7] = target: KRas G12S (Homo sapiens, UniProt P01116, G12S); test: biochemical;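 further: TR-FRET displacement binding to KRas, read after one hour incubation at room temperature, IC50 from four-parameter fit of percent of control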
# Experimental: as §1
# [8] = target: KRas G12C (Homo sapiens, UniProt P01116, G12C); test: biochemical;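 further: binding to KRas assessed by TR-FRET displacement after one hour incubation at room temperature, potency fitted from percent-of-control values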
# Experimental: as §1
# [9] = target: KRas WT (Homo sapiens, UniProt P01116); test: biochemical;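 further: binding to KRas read as TR-FRET displacement after a one-hour room-temperature incubation, IC50 derived from percent-of-control values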
# Chain of KRas WT (P01116 1-169 isoform P01116-2): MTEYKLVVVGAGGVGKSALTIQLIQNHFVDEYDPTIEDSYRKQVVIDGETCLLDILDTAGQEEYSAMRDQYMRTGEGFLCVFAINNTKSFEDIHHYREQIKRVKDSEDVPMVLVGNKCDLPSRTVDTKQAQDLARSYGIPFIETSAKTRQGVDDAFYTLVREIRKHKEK
# Experimental: as §1
# Chain of KRas G12S (P01116 1-169 isoform P01116-2 G12S): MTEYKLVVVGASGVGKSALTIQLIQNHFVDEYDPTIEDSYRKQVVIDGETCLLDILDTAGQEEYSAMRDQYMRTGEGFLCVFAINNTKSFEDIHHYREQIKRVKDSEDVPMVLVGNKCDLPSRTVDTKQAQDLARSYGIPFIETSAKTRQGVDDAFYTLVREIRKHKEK
# Chain of KRas G12C (P01116 1-169 isoform P01116-2 G12C): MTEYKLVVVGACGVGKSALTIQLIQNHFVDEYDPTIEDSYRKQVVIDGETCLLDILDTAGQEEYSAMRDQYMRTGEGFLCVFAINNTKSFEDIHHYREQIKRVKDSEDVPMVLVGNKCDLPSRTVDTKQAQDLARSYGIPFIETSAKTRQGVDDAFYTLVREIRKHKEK
# Chain of KRas G12V (P01116 1-169 isoform P01116-2 G12V): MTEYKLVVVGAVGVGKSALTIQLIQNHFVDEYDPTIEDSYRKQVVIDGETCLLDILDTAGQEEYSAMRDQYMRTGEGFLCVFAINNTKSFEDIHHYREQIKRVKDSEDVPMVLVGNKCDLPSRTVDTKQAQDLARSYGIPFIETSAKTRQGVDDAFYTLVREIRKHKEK
# Chain of KRas G12D (P01116 1-169 isoform P01116-2 G12D): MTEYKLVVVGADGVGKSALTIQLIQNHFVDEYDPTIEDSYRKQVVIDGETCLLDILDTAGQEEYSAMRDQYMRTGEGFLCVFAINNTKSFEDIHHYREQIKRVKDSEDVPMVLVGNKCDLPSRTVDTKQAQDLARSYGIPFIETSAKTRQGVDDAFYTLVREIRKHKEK
# Chain of KRas G12A (P01116 1-169 isoform P01116-2 G12A): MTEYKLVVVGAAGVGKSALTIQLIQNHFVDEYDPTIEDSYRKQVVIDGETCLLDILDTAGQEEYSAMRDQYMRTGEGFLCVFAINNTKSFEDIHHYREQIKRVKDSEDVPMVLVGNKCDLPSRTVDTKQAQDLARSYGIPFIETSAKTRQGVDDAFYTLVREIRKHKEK
# T1 sequence (P01116 1-169 isoform P01116-2 G13D): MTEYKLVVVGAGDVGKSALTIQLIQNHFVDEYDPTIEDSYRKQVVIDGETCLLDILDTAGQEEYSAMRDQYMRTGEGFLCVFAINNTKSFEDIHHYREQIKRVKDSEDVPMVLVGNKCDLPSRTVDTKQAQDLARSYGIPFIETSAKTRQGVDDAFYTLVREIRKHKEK
# T2 sequence (P01116 1-169 isoform P01116-2 Q61H): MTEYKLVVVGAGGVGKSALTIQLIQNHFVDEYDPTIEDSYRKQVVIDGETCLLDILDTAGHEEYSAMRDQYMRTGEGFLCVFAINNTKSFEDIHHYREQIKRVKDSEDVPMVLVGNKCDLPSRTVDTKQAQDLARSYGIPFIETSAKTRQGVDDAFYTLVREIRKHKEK
# Chain of KRas G12R (P01116 1-169 isoform P01116-2 G12R): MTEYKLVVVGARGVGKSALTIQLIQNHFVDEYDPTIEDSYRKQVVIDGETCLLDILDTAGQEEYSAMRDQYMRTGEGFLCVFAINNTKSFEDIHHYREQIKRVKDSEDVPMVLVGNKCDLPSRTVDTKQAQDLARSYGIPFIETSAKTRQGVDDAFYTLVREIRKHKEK
Structure (SMILES),IC50 [1] [nM],IC50 [2] [nM],IC50 [3] [µM],IC50 [4] [µM],IC50 [5] [µM],IC50 [6] [µM],IC50 [7] [µM],IC50 [8] [µM],IC50 [9] [µM]
"Oc1nc(CCCNc2nc(OCC34CCCN3CCC4)nc3c(F)c(-c4cccc5cccc(Cl)c45)ncc23)n[nH]1 [Example 103, 3-(3-((7-(8-chloronaphthalen-1-yl)-8-fluoro-2-((tetrahydro-1H-pyrrolizin-7a(5H)-yl)methoxy)pyrido[4,3-d]pyrimidin-4-yl)amino)propyl)-1H-1,2,4-triazol-5-ol]",4210,4940,15.5,1.83,1.5,2.09,2.45,1.89,3.95
"Fc1c(-c2cccc3cccc(Cl)c23)ncc2c(N3CCCC3c3cn[nH]c3)nc(OCC34CCCN3CCC4)nc12 (stereo not drawn) [Example 104, 4-(2-(1H-pyrazol-4-yl)pyrrolidin-1-yl)-7-(8-chloronaphthalen-1-yl)-8-fluoro-2-((tetrahydro-1H-pyrrolizin-7a(5H)-yl)methoxy)pyrido[4,3-d]pyrimidine]",3640,3210,7.61,2.87,2.82,1.74,2.02,2.3,2.33
"OCc1n[nH]c(CNc2nc(OCC34CCCN3CCC4)nc3c(F)c(-c4cccc5cccc(Cl)c45)ncc23)n1 [Example 105, (5-(((7-(8-chloronaphthalen-1-yl)-8-fluoro-2-((tetrahydro-1H-pyrrolizin-7a(5H)-yl)methoxy)pyrido[4,3-d]pyrimidin-4-yl)amino)methyl)-1H-1,2,4-triazol-3-yl)methanol]",13800,13800,9.05,2.81,5.92,6.7,5.75,3.51,8.01
"OC1CC2CC(C1)N(c1nc(OCC34CCCN3CCC4)nc3c(F)c(-c4cccc5cccc(Cl)c45)ncc13)C2 (stereo not drawn) [Example 106, 6-(7-(8-chloronaphthalen-1-yl)-8-fluoro-2-((tetrahydro-1H-pyrrolizin-7a(5H)-yl)methoxy)pyrido[4,3-d]pyrimidin-4-yl)-6-azabicyclo[3.2.1]octan-3-ol]",2340,2340,3.63,0.612,1.51,0.722,0.369,1.13,2.1
"NC(=O)N1CC(Nc2nc(OCC34CCCN3CCC4)nc3c(F)c(-c4cccc5cccc(Cl)c45)ncc23)C1 [Example 107, 3-((7-(8-chloronaphthalen-1-yl)-8-fluoro-2-((tetrahydro-1H-pyrrolizin-7a(5H)-yl)methoxy)pyrido[4,3-d]pyrimidin-4-yl)amino)azetidine-1-carboxamide]",8790,8780,10.8,3.41,4.62,6.52,6.85,3.52,8.53
"Fc1c(-c2cccc3cccc(Cl)c23)ncc2c(N3CCCC(n4cccn4)C3)nc(OCC34CCCN3CCC4)nc12 (stereo not drawn) [Example 109, 4-(3-(1H-pyrazol-1-yl)piperidin-1-yl)-7-(8-chloronaphthalen-1-yl)-8-fluoro-2-((tetrahydro-1H-pyrrolizin-7a(5H)-yl)methoxy)pyrido[4,3-d]pyrimidine]",4340,4940,10.2,7.43,4.11,4.28,7.39,4.25,3.99
"O=C1NCC(CNc2nc(OCC34CCCN3CCC4)nc3c(F)c(-c4cccc5cccc(F)c45)ncc23)O1 (stereo not drawn) [Example 110, 5-(((8-fluoro-7-(8-fluoronaphthalen-1-yl)-2-((tetrahydro-1H-pyrrolizin-7a(5H)-yl)methoxy)pyrido[4,3-d]pyrimidin-4-yl)amino)methyl)oxazolidin-2-one]",9330,10100,26.9,3.97,2.48,9.28,4.37,5.22,8.81
"C[C@@H]1C[C@@H](O)CN(c2nc(OCC34CCCN3CCC4)nc3c(F)c(-c4cccc5cccc(F)c45)ncc23)C1 [Example 112, (3R,5R)-1-(8-fluoro-7-(8-fluoronaphthalen-1-yl)-2-((tetrahydro-1H-pyrrolizin-7a(5H)-yl)methoxy)pyrido[4,3-d]pyrimidin-4-yl)-5-methylpiperidin-3-ol]",13300,20700,37.5,25.9,28.1,25.3,31,27.5,36.6
"OCC1CCCN(c2nc(OCC34CCCN3CCC4)nc3c(F)c(-c4cccc5cccc(F)c45)ncc23)C1 (stereo not drawn) [Example 113, (1-(8-fluoro-7-(8-fluoronaphthalen-1-yl)-2-((tetrahydro-1H-pyrrolizin-7a(5H)-yl)methoxy)pyrido[4,3-d]pyrimidin-4-yl)piperidin-3-yl)methanol]",12100,12200,14.2,12,16,9.48,10.6,7.11,8.47
"Fc1c(-c2cccc3cccc(F)c23)ncc2c(N3CCCC4(CC4)C3)nc(OCC34CCCN3CCC4)nc12 [Example 114, 8-fluoro-7-(8-fluoronaphthalen-1-yl)-4-(5-azaspiro[2.5]octan-5-yl)-2-((tetrahydro-1H-pyrrolizin-7a(5H)-yl)methoxy)pyrido[4,3-d]pyrimidine]",29900,43300,4.38,2.86,3.75,2.64,2.81,2.48,2.71
"Fc1c(-c2cccc3cccc(F)c23)ncc2c(NCCc3c[nH]nn3)nc(OCC34CCCN3CCC4)nc12 [Example 115, N-(2-(1H-1,2,3-triazol-4-yl)ethyl)-8-fluoro-7-(8-fluoronaphthalen-1-yl)-2-((tetrahydro-1H-pyrrolizin-7a(5H)-yl)methoxy)pyrido[4,3-d]pyrimidin-4-amine]",21200,22300,30.9,5.8,4.64,10.5,10.9,6.56,11.6
"CC1CC(O)CCN(c2nc(OCC34CCCN3CCC4)nc3c(F)c(-c4cccc5cccc(F)c45)ncc23)C1 (stereo not drawn) [Example 116, 1-(8-fluoro-7-(8-fluoronaphthalen-1-yl)-2-((tetrahydro-1H-pyrrolizin-7a(5H)-yl)methoxy)pyrido[4,3-d]pyrimidin-4-yl)-6-methylazepan-4-ol]",2700,5200,3.31,4.09,6.27,2.74,3.59,4.41,3.45
"OCC1CN(c2nc(OCC34CCCN3CCC4)nc3c(F)c(-c4cccc5cccc(F)c45)ncc23)CCC1O (stereo not drawn) [Example 117, 1-(8-fluoro-7-(8-fluoronaphthalen-1-yl)-2-((tetrahydro-1H-pyrrolizin-7a(5H)-yl)methoxy)pyrido[4,3-d]pyrimidin-4-yl)-3-(hydroxymethyl)piperidin-4-ol]",5680,8240,32,11.1,10.1,9.15,11,6.57,9.86
"Fc1c(-c2cccc3cccc(F)c23)ncc2c(NCCCn3ccnn3)nc(OCC34CCCN3CCC4)nc12 [Example 118, N-(3-(1H-1,2,3-triazol-1-yl)propyl)-8-fluoro-7-(8-fluoronaphthalen-1-yl)-2-((tetrahydro-1H-pyrrolizin-7a(5H)-yl)methoxy)pyrido[4,3-d]pyrimidin-4-amine]",8810,14000,16.1,7.53,11.3,8.14,6.24,7.45,8.55
"Fc1c(-c2cccc3cccc(F)c23)ncc2c(NCCCn3cnnn3)nc(OCC34CCCN3CCC4)nc12 [Example 119, N-(3-(1H-tetrazol-1-yl)propyl)-8-fluoro-7-(8-fluoronaphthalen-1-yl)-2-((tetrahydro-1H-pyrrolizin-7a(5H)-yl)methoxy)pyrido[4,3-d]pyrimidin-4-amine]",17200,27600,31.9,18,15.6,14.4,14.6,11.6,15.7
"Oc1cccc2c1CN(c1nc(OCC34CCCN3CCC4)nc3c(F)c(-c4cccc5cccc(F)c45)ncc13)C2 [Example 120, 2-(8-fluoro-7-(8-fluoronaphthalen-1-yl)-2-((tetrahydro-1H-pyrrolizin-7a(5H)-yl)methoxy)pyrido[4,3-d]pyrimidin-4-yl)isoindolin-4-ol]",≥ 100000,≥ 100000,≥ 100,≥ 100,≥ 100,33.3,85.3,19.8,34.1
